Measurements reported in patent publication US20120277238A1, “PHARMACEUTICAL COMPOSITION CONTAINING FUSED HETERO-RING DERIVATIVE” (Shionogi & Co., Ltd, priority 2009, published 2012).

target: T1, human HRH4 (Homo sapiens, UniProt Q9H3N8); experiment: Histamine H4 receptor binding test ([3H]-Histamine radioligand binding); conditions: membrane fraction of CHO-K1 expressing human HRH4; [3H]-Histamine 15 nM; Ki by Cheng-Prusoff
T1 construct: purchased PerkinElmer
Experimental: Membrane fraction of CHO-K1 stably expressing human HRH4 was purchased from PerkinElmer. Radioligand binding assay was performed in 96 well polypropylene assay plates in a total assay volume of 150 μL. Membrane suspension (15 μg of protein) was mixed with [3H]-Histamine (PerkinElmer) at 15 nM and compounds at various concentration in 50 mM Tris-HCl pH7.4, 5 mM EDTA buffer. Assays were incubated for 60 min at room temperature, then the reactions were terminated by rapid filtration over 96-well GF/B filter plates (PerkinElmer) presoaked in 0.5% polyethyleneimine. Unbound radioactivity was eliminated by six times of wash with 350 μL of ice-cold 50 mM Tris pH7.4 buffer. When the filter plates were dried, Microscint-MS liquid scintillation fluid (PerkinElmer) was added to each well and retained radioactivity plates were counted in a Topcount liquid scintillation counter (PerkinElmer). Specific binding was calculated by subtracting non-specific binding determined in the presence of 100 μM unlabeled histamine from total count.
The resulting data were analyzed for IC50 using the non-linear regression on XLfit.
Affinity values (Ki) were then determined by Cheng-Prusoff equation.

T1 sequence (Q9H3N8 whole entry): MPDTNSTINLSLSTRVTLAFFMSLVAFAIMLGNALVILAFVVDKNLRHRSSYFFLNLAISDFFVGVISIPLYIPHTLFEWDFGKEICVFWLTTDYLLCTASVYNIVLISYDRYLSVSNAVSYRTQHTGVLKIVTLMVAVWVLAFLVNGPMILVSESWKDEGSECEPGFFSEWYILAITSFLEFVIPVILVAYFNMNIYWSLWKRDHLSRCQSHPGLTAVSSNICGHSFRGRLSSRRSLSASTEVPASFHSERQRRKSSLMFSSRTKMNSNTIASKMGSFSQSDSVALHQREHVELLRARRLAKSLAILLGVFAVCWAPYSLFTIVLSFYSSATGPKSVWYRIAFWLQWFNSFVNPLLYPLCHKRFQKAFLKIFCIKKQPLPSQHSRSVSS

First: CNC1CCN(C(=O)c2cc3c([nH]2)CCCC3)C1 (stereo not drawn) [Compound I-003]
Second: CN1CCN(C(=O)c2cc3c([nH]2)CCCC3)CC1 [Compound I-048]
The Ki of the first is 6.2-fold higher: 680 nM for the first, 110 nM for the second.

Going from O=C(c1cc2c([nH]1)CCCC2)N1CCNCC1 [Compound I-005] to O=C(c1cc2c([nH]1)CCC(Cl)(Cl)C2)N1CCNCC1 [Compound I-055], the Ki falls from 250 nM to 23 nM (11-fold). The second binds more tightly here.

O=C(c1cc2c([nH]1)CCCC2)N1CC2CCCNC2C1 (stereo not drawn) [Compound I-006] and O=C(c1cc2c([nH]1)CCCC2)N1C[C@H]2CCCN[C@H]2C1 [Compound I-062] are within 1.5-fold of each other in Ki: 230 nM for the first, 260 nM for the second.

First: O=C(c1nc2c([nH]1)CCCC2)N1CCNCC1 [Compound I-008]
Second: CN1CCN(C(=O)c2nc3c([nH]2)CCCC3)CC1 [Compound I-049]
The Ki of the first is 2.8-fold higher: 420 nM for the first, 150 nM for the second. The second binds more tightly here.

Going from CC1CCCc2[nH]c(C(=O)N3CCN(C)CC3)cc21 (stereo not drawn) [Compound I-009] to CN1CCN(C(=O)c2cc3c([nH]2)CCCC3O)CC1 (stereo not drawn) [Compound I-051], the Ki rises from 150 nM to 250 nM (1.7-fold). The first binds more tightly here.

First: CN1CCN(C(=O)c2cc3c([nH]2)C(O)CC3)CC1 (stereo not drawn) [Compound I-012]
Second: CN1CCN(C(=O)c2cc3c([nH]2)C(O)CCC3)CC1 (stereo not drawn) [Compound I-036]
The Ki of the first is 7.7-fold higher: 680 nM for the first, 88 nM for the second.

CN1CCN(C(=O)c2cc3c([nH]2)CCCCC3)CC1 [Compound I-013] and CN1CCN(C(=O)c2cc3c([nH]2)CCC(=O)C3)CC1 [Compound I-016] are within 1.5-fold of each other in Ki: 300 nM for the first, 370 nM for the second.

Going from CC1CCc2[nH]c(C(=O)N3CCN(C)CC3)cc2C1 (stereo not drawn) [Compound I-015] to CC1CCc2cc(C(=O)N3CCN(C)CC3)[nH]c2C1 (stereo not drawn) [Compound I-017], the Ki rises from 86 nM to 570 nM (6.6-fold).

Going from Cc1ccc(S(=O)(=O)OC2CCc3[nH]c(C(=O)N4CCN(C)CC4)cc3C2)cc1 (stereo not drawn) [Compound I-019] to COC1CCc2[nH]c(C(=O)N3CCN(C)CC3)cc2C1 (stereo not drawn) [Compound I-023], the Ki rises from 200 nM to 990 nM (5-fold). The first binds more tightly here.

Going from CN1CCN(C(=O)c2cc3c([nH]2)CCC(Cl)C3)CC1 (stereo not drawn) [Compound I-020] to CN1CCN(C(=O)c2cc3c([nH]2)CCC(C(F)(F)F)C3)CC1 (stereo not drawn) [Compound I-045], the Ki rises from 22 nM to 910 nM (41-fold). The first binds more tightly here.

First: CN1CCN(C(=O)c2cc3c([nH]2)CCC=C3)CC1 [Compound I-021]
Second: C#CC1=Cc2cc(C(=O)N3CCN(C)CC3)[nH]c2CC1 [Compound I-033]
The Ki of the first is 2.7-fold lower: 120 nM for the first, 320 nM for the second. The first binds more tightly here.

Compared with CN1CCN(C(=O)c2cc3c([nH]2)CCC(C)(C)C3)CC1 [Compound I-022], CN1CCN(C(=O)c2cc3c([nH]2)CCC(Cl)(Cl)C3)CC1 [Compound I-047] is 5-fold lower in Ki: 70 nM for the first, 14 nM for the second. The second binds more tightly here.

Compared with CN1CCN(C(=O)c2cc3c([nH]2)C(=O)CCC3)CC1 [Compound I-024], CC1CCCc2cc(C(=O)N3CCN(C)CC3)[nH]c21 (stereo not drawn) [Compound I-026] is 7.1-fold lower in Ki: 710 nM for the first, 100 nM for the second.

Compared with CN1CCN(C(=O)c2cc3c([nH]2)CCC(c2ccccc2)=C3)CC1 [Compound I-027], CN1CCN(C(=O)c2cc3c([nH]2)CC=C(F)C3)CC1 [Compound I-065] is 22-fold lower in Ki: 760 nM for the first, 35 nM for the second.

Compared with CN1CCN(C(=O)c2cc3c([nH]2)C(C)(O)CCC3)CC1 (stereo not drawn) [Compound I-040], CN1CCN(C(=O)c2cc3c([nH]2)C(C)(O)CC3)CC1 (stereo not drawn) [Compound I-057] is 2.4-fold higher in Ki: 180 nM for the first, 440 nM for the second.

Compared with CCC1(O)CCCc2cc(C(=O)N3CCN(C)CC3)[nH]c21 (stereo not drawn) [Compound I-041], CN1CCN(C(=O)c2cc3c([nH]2)CC(O)CC3)CC1 (stereo not drawn) [Compound I-075] is 30-fold lower in Ki: 590 nM for the first, 20 nM for the second.

Compared with CN1CCN(C(=O)c2cc3c([nH]2)[C@H]2CC[C@@H]3C2)CC1 [Compound I-046], CN1CCN(C(=O)c2cc3c([nH]2)CCC(F)C3O)CC1 (stereo not drawn) [Compound I-053] is 2.1-fold lower in Ki: 290 nM for the first, 140 nM for the second.

First: CN1CCN(C(=O)c2cc3c([nH]2)CCOC3)CC1 [Compound I-052]
Second: CN1CCN(C(=O)c2cc3c([nH]2)CC(O)C(Cl)(Cl)C3)CC1 (stereo not drawn) [Compound I-076]
The Ki of the first is 15-fold higher: 380 nM for the first, 25 nM for the second.

First: CN1CCN(C(=O)c2cc3c([nH]2)CCC(F)(F)C3O)CC1 (stereo not drawn) [Compound I-054]
Second: CN1CCN(C(=O)c2cc3c([nH]2)CCC(Cl)(Cl)C3O)CC1 (stereo not drawn) [Compound I-066]
The Ki of the first is 1.5-fold lower: 230 nM for the first, 350 nM for the second.

Compared with O=C(c1cc2c([nH]1)CCC(F)(F)C2)N1CCNCC1 [Compound I-056], O=C(c1cc2c([nH]1)CCC(Cl)(Cl)C2O)N1CCNCC1 (stereo not drawn) [Compound I-073] is 7.5-fold higher in Ki: 130 nM for the first, 980 nM for the second.

CC(=O)n1c(C(=O)N2CCN(C)CC2)cc2c1CCCC2 [Compound I-059] and CC(C)C(=O)n1c(C(=O)N2CCN(C)CC2)cc2c1CCCC2 [Compound I-061] are within 1.5-fold of each other in Ki: 270 nM for the first, 210 nM for the second.

First: O=C(c1cc2c([nH]1)CCC(F)(F)C2O)N1C[C@H]2CCCN[C@H]2C1 (stereo partly drawn) [Compound I-064]
Second: CCOC1c2cc(C(=O)N3C[C@H]4CCCN[C@H]4C3)[nH]c2CCC1(F)F (stereo partly drawn) [Compound I-070]
The Ki of the first is 1.5-fold lower: 180 nM for the first, 270 nM for the second. The first binds more tightly here.

Compared with COC1c2cc(C(=O)N3CCNCC3)[nH]c2CCC1(Cl)Cl (stereo not drawn) [Compound I-067], COC1c2cc(C(=O)N3CCN(C)CC3)[nH]c2CCC1(Cl)Cl (stereo not drawn) [Compound I-069] is 2.2-fold lower in Ki: 480 nM for the first, 220 nM for the second. The second binds more tightly here.

Compound O=C(c1cc2c([nH]1)CCC(F)(F)C2O)N1CCN2CCCC2C1 (stereo not drawn) [Compound I-068] has a Ki of 520 nM.

tested on: not listed separately; experiment: Metabolism stability test (human); format: in vitro ADME; conditions: test compound concentration 0.5 μmol/L, 30 minutes, 37° C.
Experimental: Using commercially available pooled human hepatic microsomes, prepared in accordance with Japanese journal of pharmacology, 33 (1), p. 41-56, February 1983, a test compound was reacted for a constant time, a remaining rate was calculated by comparing a reacted sample and an unreacted sample, thereby, a degree of metabolism in liver was assessed.
A reaction was performed (oxidative reaction) at 37° C. for 0 minute or 30 minutes in the presence of 1 mmol/L NADPH in 0.2 mL of a buffer (50 mmol/L tris-HCl pH 7.4, 150 mmol/L potassium chloride, 10 mmol/L magnesium chloride) containing 0.5 mg protein/mL of human liver microsomes. After the reaction, 50 μL of the reaction solution was added to 100 μL of a methanol/acetonitrile=1/1 (v/v), mixed and centrifuged at 3000 rpm for 15 minutes. The test compound in the supernatant was quantified by LC/MS/MS, and a remaining amount of the test compound after the reaction was calculated, letting a compound amount at 0 minute reaction time to be 100%. Hydrolysis reaction was performed in the absence of NADPH and glucuronidation reaction was in the presence of 5 mM UDP-glucuronic acid in place of NADPH, followed by similar operations.

CN1CCN(C(=O)c2cc3c([nH]2)C(O)CC3)CC1 (stereo not drawn) [Compound I-012] gave a remaining rate of 94%.

same assay, conditions: test compound concentration 2 μmol/L, 30 minutes, 37° C.

With O=C(c1cc2c([nH]1)CCC(Cl)(Cl)C2O)N1CCNCC1 (stereo not drawn) [Compound I-073] the remaining rate was 99%.

tested on: not listed separately; experiment: Metabolism stability test (rat); format: in vitro ADME; conditions: test compound concentration 0.5 μmol/L, 30 minutes, 37° C.

In the case of CN1CCN(C(=O)c2cc3c([nH]2)C(O)CC3)CC1 (stereo not drawn) [Compound I-012], the remaining rate is reported as 92%.

same assay, conditions: test compound concentration 2 μmol/L, 30 minutes, 37° C.

With O=C(c1cc2c([nH]1)CCC(Cl)(Cl)C2O)N1CCNCC1 (stereo not drawn) [Compound I-073] the remaining rate was 79%.

tested on: not listed separately; experiment: Bioavailability (BA) test and total body clearance test; format: in vivo; conditions: plasma; rat; oral 1 mg/kg dosage
Experimental: (1) Animal: mice or rats (2) Breeding conditions: mice and rats are allowed to freely take solid feed and sterilized tap water (3) Dose and grouping: orally or intravenously administered at a predetermined dose; grouping is as follows (Dose depends on the compound)
Oral administration: 1 to 30 mg/kg (n=2 to 3)
Intravenous administration: 0.5 to 10 mg/kg (n=2 to 3)
(4) Preparation of dosing solution: for oral administration, in a solution or a suspension state; for intravenous administration, in a solubilized state (5) Administration method: in oral administration, forcedly administer into ventriculus with oral probe; in intravenous administration, administer from caudal vein with a needle-equipped syringe (6) Evaluation items: blood is collected over time, and the plasma concentration of drug is measured by LC/MS/MS (7) Statistical analysis: regarding the transition of the plasma concentration, the area under the plasma concentration-time curve (AUC) and total body clearance (Clt) are calculated by non-linear least squares program WinNonlin (Registered trademark), and the bioavailability (BA) is calculated from the AUCs of the oral administration group and intravenous administration group
The following values show the rat BA of the compounds on oral 1 mg/kg dosage.

Work on O=C(c1cc2c([nH]1)CCC(Cl)(Cl)C2O)N1CCNCC1 (stereo not drawn) [Compound I-073] yielded a bioavailability of 59%.

same assay, conditions: rat, plasma, intravenous; read-out: Clt (total body clearance)

With O=C(c1cc2c([nH]1)CCC(Cl)(Cl)C2O)N1CCNCC1 (stereo not drawn) [Compound I-073] the clearance was 24 mL/min/kg.

target: CYP3A4 (Homo sapiens, UniProt P08684); experiment: CYP3A4 fluorescent MBI test; format: in vitro ADME; parameters: host or cells: Escherichia coli; conditions: prereaction 0 or 30 minutes; substrate 7-BFC; CYP3A4 expressed in Escherichia coli
Experimental: The CYP3A4 fluorescent MBI test is a test of investigating enhancement of CYP3A4 inhibition of a compound by a metabolism reaction, and the test was performed using, as CYP3A4 enzyme expressed in Escherichia coli and employing, as an index, a reaction in which 7-benzyloxytrifluoromethylchmarin (BFC) is debenzylated by the CYP3A4 enzyme to produce a metabolite, 7-hydroxytrifluoromethylchmarin (HFC) emitting fluorescent light.
The reaction conditions were as follows: substrate, 5.6 μmol/L 7-BFC; prereaction time, 0 or 30 minutes; reaction time, 15 minutes; reaction temperature, 25° C. […]
An enzyme in a K-Pi buffer (pH 7.4) and a test drug solution as a pre-reaction solution were added to a 96-well plate at the composition of the pre-reaction, a part of it was transferred to another 96-well plate so that it was 1/10 diluted by a substrate in a K-Pi buffer, NADPH as a co-factor was added to initiate a reaction as an index (without preincubation) and, after a predetermined time of a reaction, acetonitrile/0.5 mol/L Tris(trishydroxyaminomethane)=4/1 was added to stop the reaction. […] For the plate on which each index reaction had been performed, a fluorescent value of 7-HFC which is a metabolite was measured with a fluorescent plate reader. […]

Sequence of CYP3A4 (P08684 whole entry): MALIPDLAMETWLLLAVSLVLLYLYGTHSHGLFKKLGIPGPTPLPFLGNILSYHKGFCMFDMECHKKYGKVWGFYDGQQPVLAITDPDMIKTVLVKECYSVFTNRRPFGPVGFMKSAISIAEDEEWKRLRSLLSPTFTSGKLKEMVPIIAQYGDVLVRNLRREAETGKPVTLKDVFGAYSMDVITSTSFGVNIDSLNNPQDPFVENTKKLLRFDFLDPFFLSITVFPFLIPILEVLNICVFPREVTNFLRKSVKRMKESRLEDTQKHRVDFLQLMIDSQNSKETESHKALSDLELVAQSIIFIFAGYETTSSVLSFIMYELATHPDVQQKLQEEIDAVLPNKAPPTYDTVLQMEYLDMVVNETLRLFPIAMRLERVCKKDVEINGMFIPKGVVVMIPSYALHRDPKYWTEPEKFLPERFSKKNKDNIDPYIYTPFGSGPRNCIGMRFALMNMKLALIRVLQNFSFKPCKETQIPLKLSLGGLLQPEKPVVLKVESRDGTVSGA

In the case of CN1CCN(C(=O)c2cc3c([nH]2)CCC3O)CC1 (stereo not drawn) [Compound I-010], the “CYP3A4 MBI: difference between IC50 values” is reported as “(−) (when the difference is 3 μM or less, this was defined as (−))”.
